target: T1, Purified ERAP1(37-941)-10His (ERAP1) (Homo sapiens, UniProt Q9NZ08); assay: ERAP1 mediated hydrolysis of an amide substrate measured in a biochemical system (10-mer decapeptide substrate); conditions: 10-mer substrate, 23° C. for 1 h, excitation 279 nm and emission 355 nm; read-out: IC50 vs Decapeptide WRVYEKC(Dnp)ALK-acid (where Dnp is Dinitrophenyl maleimide) (10-mer)
T1 construct: Purified ERAP1(37-941)-10His (ERAP1); 10His (C)
Method in brief: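 ERAP1(37-941)-10His preincubated with compound in 25 mM Bis-tris propane, 0.05% HPMC, pH 7.75, then reacted 1 h at 23 °C with 10-mer WRVYEKC(Dnp)ALK (100 μM solution added in equal volume). Fluorescence read at ex 279/em 355 nm; IC50 from 4-parameter fit.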

T1 sequence (Q9NZ08 37-941): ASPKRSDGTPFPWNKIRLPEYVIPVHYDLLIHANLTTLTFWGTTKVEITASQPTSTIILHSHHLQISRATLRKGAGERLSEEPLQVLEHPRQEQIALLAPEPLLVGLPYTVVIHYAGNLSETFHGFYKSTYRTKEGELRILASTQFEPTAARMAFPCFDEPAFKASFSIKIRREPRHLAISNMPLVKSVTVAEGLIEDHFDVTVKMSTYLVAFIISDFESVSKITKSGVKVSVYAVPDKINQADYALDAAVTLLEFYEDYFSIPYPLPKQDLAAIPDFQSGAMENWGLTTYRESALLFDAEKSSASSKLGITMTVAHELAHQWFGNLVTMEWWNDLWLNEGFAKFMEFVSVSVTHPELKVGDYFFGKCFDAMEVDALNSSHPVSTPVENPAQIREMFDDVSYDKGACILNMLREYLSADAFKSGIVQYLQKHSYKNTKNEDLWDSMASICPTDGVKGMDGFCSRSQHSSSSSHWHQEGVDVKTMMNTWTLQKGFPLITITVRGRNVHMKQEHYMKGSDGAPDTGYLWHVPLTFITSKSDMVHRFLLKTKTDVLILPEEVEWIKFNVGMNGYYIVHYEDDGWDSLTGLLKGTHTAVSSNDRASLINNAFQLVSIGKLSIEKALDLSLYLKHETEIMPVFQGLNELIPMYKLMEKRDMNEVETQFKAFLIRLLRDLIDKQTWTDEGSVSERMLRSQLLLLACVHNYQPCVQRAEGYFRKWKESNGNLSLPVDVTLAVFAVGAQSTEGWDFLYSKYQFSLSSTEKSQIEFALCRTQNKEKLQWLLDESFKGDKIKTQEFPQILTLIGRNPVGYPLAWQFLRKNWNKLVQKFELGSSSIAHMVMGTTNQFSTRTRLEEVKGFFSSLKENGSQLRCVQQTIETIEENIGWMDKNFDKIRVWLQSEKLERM

IC50, < 0.5 µM:
Cc1oncc1-c1cc(NS(=O)(=O)c2cc(C(=O)O)ccc2C2CC2)c(-c2ccccn2)cc1Cl [Example 193, 3-(N-(4-chloro-5-(5-methylisoxazol-4-yl)-2-(pyridin-2-yl)phenyl)sulfamoyl)-4-cyclopropylbenzoic acid]
Cc1oncc1-c1ccc(-n2cccc2)c(NS(=O)(=O)c2cc(C(=O)O)ccc2C2CC2)c1 [Example 194, 4-cyclopropyl-3-(N-(5-(5-methylisoxazol-4-yl)-2-(pyrrol-1-yl)phenyl)sulfamoyl)benzoic acid]
N#Cc1cc(NS(=O)(=O)c2cc(C(=O)O)ccc2C2CC2)c(-c2cscn2)cc1F [Example 196, 3-(N-(5-cyano-4-fluoro-2-(thiazol-4-yl)phenyl)sulfamoyl)-4-cyclopropylbenzoic acid]
Cn1nccc1-c1ccc(-n2cccc2)c(NS(=O)(=O)c2cc(C(=O)O)ccc2C2CC2)c1 [Example 197, 4-cyclopropyl-3-(N-(5-(1-methylpyrazol-5-yl)-2-(pyrrol-1-yl)phenyl)sulfamoyl)benzoic acid]
O=C(O)c1ccc(C2CC2)c(S(=O)(=O)Nc2cc(-c3ccns3)c(F)cc2-n2cccc2)c1 [Example 198, 4-cyclopropyl-3-(N-(4-fluoro-5-(isothiazol-5-yl)-2-(pyrrol-1-yl)phenyl)sulfamoyl)benzoic acid]
Cn1nccc1-c1cc(NS(=O)(=O)c2cc(C(=O)O)ccc2C2CC2)c(-n2cccc2)cc1F [Example 199, 4-cyclopropyl-3-(N-(4-fluoro-5-(1-methylpyrazol-5-yl)-2-(pyrrol-1-yl)phenyl)sulfamoyl)benzoic acid]
Cn1nccc1-c1cc(NS(=O)(=O)c2cc(C(=O)O)ccc2C2CC2)c(-n2cccc2)cc1Cl [Example 200, 3-(N-(4-chloro-5-(1-methylpyrazol-5-yl)-2-(pyrrol-1-yl)phenyl)sulfamoyl)-4-cyclopropylbenzoic acid]
Cn1ncnc1-c1cc(NS(=O)(=O)c2cc(C(=O)O)ccc2C2CC2)c(-n2cccc2)cc1F [Example 201, 4-cyclopropyl-3-(N-(4-fluoro-5-(1-methyl-1,2,4-triazol-5-yl)-2-(pyrrol-1-yl)phenyl)sulfamoyl)benzoic acid]
Cc1oncc1-c1cc(NS(=O)(=O)c2cc(C(=O)O)ccc2C2CC2)c(-n2cccc2)cc1F [Example 202, 4-cyclopropyl-3-(N-(4-fluoro-5-(5-methylisoxazol-4-yl)-2-(pyrrol-1-yl)phenyl)sulfamoyl)benzoic acid]
O=C(O)c1ccc(C2CC2)c(S(=O)(=O)Nc2cc(-c3ccns3)c(Cl)cc2-n2cccc2)c1 [Example 203, 3-(N-(4-chloro-5-(isothiazol-5-yl)-2-(pyrrol-1-yl)phenyl)sulfamoyl)-4-cyclopropylbenzoic acid]
Cn1ncnc1-c1cc(NS(=O)(=O)c2cc(C(=O)O)ccc2C2CC2)c(-n2cccc2)cc1Cl [Example 204, 3-(N-(4-chloro-5-(1-methyl-1,2,4-triazol-5-yl)-2-(pyrrol-1-yl)phenyl)sulfamoyl)-4-cyclopropylbenzoic acid]
Cc1oncc1-c1cc(NS(=O)(=O)c2cc(C(=O)O)ccc2C2CC2)c(-n2cccc2)cc1Cl [Example 205, 3-(N-(4-chloro-5-(5-methylisoxazol-4-yl)-2-(pyrrol-1-yl)phenyl)sulfamoyl)-4-cyclopropylbenzoic acid]
O=C(O)c1ccc(C2CC2)c(S(=O)(=O)Nc2cc(-n3cnnn3)c(Cl)cc2-n2cccc2)c1 [Example 206, 3-(N-(4-chloro-2-(pyrrol-1-yl)-5-(tetrazol-1-yl)phenyl)sulfamoyl)-4-cyclopropylbenzoic acid]
O=C(O)c1ccc(C2CC2)c(S(=O)(=O)Nc2cc(-n3cnnn3)c(F)cc2-n2cccc2)c1 [Example 207, 4-cyclopropyl-3-(N-(4-fluoro-2-(pyrrol-1-yl)-5-(tetrazol-1-yl)phenyl)sulfamoyl)benzoic acid]
O=C(O)c1ccc(C2CC2)c(S(=O)(=O)Nc2cc(-n3cnnn3)ccc2-n2cccc2)c1 [Example 208, 3-(N-(2-(pyrrol-1-yl)-5-(tetrazol-1-yl)phenyl)sulfamoyl)-4-cyclopropylbenzoic acid]
